Assay results reported in US20260365698A1, “STAPLED PEPTIDES FOR SENSITIZATION OF CANCER TO TREATMENT” (Purdue Research Foundation, priority 2022, published 2026).
Blank lines part the entries; values can stand above or below the molecule they belong to. Bridge positions count the residues as written; N and C are the ends. Square brackets hold non-standard residues; d marks the D form. Ends that are not written are not given here. Peptide text beside a SMILES is read from it. S5 = C=CCCC[C@](C)(N)C(=O)O

What was measured:
[1] = system: MAFG-NRF2 protein complex; details: cited from earlier work
Neh1 domain of NRF2 = details: cited from earlier work
[2] = system: non-small cell lung cancer (NSCLC) cells; details: cited from earlier work
proteinase K = assay: Proteinase K peptide stability assay; details: 10 μg/mL proteinase K
Protocol: Data are from three independent replicates with standard error indicated. Scale bar indicates 50 μm.
Peptide stability assays were performed using the protocols described in Cromm et al., Protease-resistant and cell-permeable double-stapled peptides targeting the Rab8a GTPase, ACS Chemical Biology 11(8): 2375-2382 (2016). Briefly, 55 μM of peptide was incubated with 10 μg/mL proteinase K for the indicated timepoints. At the end of each time point, 50 μL of the reaction mixture were quenched in 100 μL of a 1:1 mixture acetonitrile/water+1% formic acid (FA). Samples were injected and analyzed on a Triple quad. Analysis was done using an Agilent Technologies 1200 Series attached to an Agilent Technologies 6460 Triple Quad LC/MS. Analysis was performed with a ZORBAX XDB-C18 […], 2.1×50 mm column (Agilent Technologies, Inc., Santa Clara, CA). Eluent A: H2O with 0.1% FA. Eluent B: MeCN with 0.1% FA. Purity analysis utilized the gradient as follows: (A:B, 0.3 mL/min): 95:5, 0 minutes; 95:5, 1 minute; 5:95, 5 minutes; 5:95, 8 minutes: 95:5, 8.5 minutes; 95:5, 12.5 minutes.

A549 cells = assay: Confocal microscopy of FITC-labeled peptides, cell permeability; format: cell-based; details: FITC-labeled peptide, 100 μM, 90 minutes, A549 cells
Protocol: To determine whether this was a result of poor cell permeability by compounds N2S and N3S, fluorophore labeled versions of these peptides were generated, and confocal microscopy was used to determine the abilities of these peptides to enter cells (FIG. 5C).
Briefly, A549 cells at 9.5×10^4 cells/ml in 600 μl media were plated on 10 mm glass-bottomed, 24-well plates (Chemglass Life Sciences Cell Culture Plate, 24-Well, Fisher Scientific, Waltham, MA) and cultured for overnight at 37 °C, 5% CO2, in complete growth medium (RPMI supplemented with 10% fetal calf serum, L-glutamine, and non-essential amino acids). The next day, cells were treated with fresh, pre-warmed complete growth medium supplemented with the desired FITC-labeled peptide or DMSO vehicle control at a final concentration of 100 μM FITC labeled peptide and 1% DMSO. After 90 minutes of treatment, cells were washed three times in warm PBS to remove excess peptide from the cell surface and left in modified Krebs-Ringer buffer solution [KRBH: 134 mM NaCl. 3.5 mM KCl. 1.2 mM KH2PO4, 0.5 mM MgSO4, 1.5 mM CaCl2), 5 mM NaHCO3, 10 mM HEPES (pH 7.4)] containing Hoechst stain at 1 μg/ml. Cells were immediately analyzed under a Nikon A1 confocal microscope (Resonant). The images were taken at 20× magnification with fluorescence excitation wavelengths at 409 for the Hoechst and 488 for the FITC. Images were processed using NIS-Elements AR. Dietrich et al., Cell permeable stapled peptide inhibitor of Wnt signaling that targets 0-catenin protein-protein interactions, Cell Chemical Biology 24(8): 958-968.e5 (2017); Dougherty et al., Enhancing the cell-permeability of stapled peptides with a cyclic cell-penetrating peptide, J Medicinal Chemistry 62(22): 10098 (2019).

His-MafG = biological target: T1, His-MafG; assay: SPR, pH 7.5
T1 chain: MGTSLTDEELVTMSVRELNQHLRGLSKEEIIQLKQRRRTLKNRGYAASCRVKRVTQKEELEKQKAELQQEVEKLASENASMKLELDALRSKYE

Molecule: Cc1ccccc1C(=O)N1CCc2cc(-c3nc(NC(=O)Cc4ccc5c(c4)OCO5)sc3C)ccc21 [ML-385]
binding of MAFG-NRF2 complex to regulatory DNA and downstream target gene expression [1]: inhibiting downstream target gene expression
binding to the Neh1 domain of NRF2 (Neh1 domain of NRF2): binds to the Neh1 domain of NRF2
cytotoxicity in combination with platinum-based drugs, doxorubicin or taxol [2]: substantially enhances cytotoxicity

time at which significant degradation starts (proteinase K; 55 μM peptide): 40 min
cellular and nuclear permeability (A549 cells): good
Molecule: CC(=O)N[C@@H](CC(=O)O)C(=O)N[C@@H](CC(C)C)C(=O)N[C@@H](CC(=O)O)C(=O)N[C@@H](Cc1c[nH]cn1)C(=O)N[C@@H](CC(C)C)C(=O)N[C@@]1(C)CCCC=CCCC[C@@](C)(C(=O)N[C@@H](CCCCN)C(=O)N[C@@H](CC(C)C)C(=O)N[C@@H](CC(C)C)C(=O)N[C@@H](CCCCN)C(=O)N[C@@H](CCC(=O)O)C(=O)N[C@@H](CCCCN)C(N)=O)NC(=O)[C@H](CCCCN)NC(=O)[C@H](CCC(=O)O)NC(=O)[C@H](CC(=O)O)NC1=O [N2S] (Ac-DLDHL[S5]DEK[S5]KLLKEK-NH2; staple 6-10)

degradation by proteinase K (proteinase K; for up to 24 hours, 55 μM peptide): no significant degradation
accumulation in the nucleus (A549 cells): very little to no accumulation
cellular permeability (A549 cells): minimal
Molecule: CC(=O)N[C@@H](CC(=O)O)C(=O)N[C@@H](CCC(=O)O)C(=O)N[C@@H](CCCCN)C(=O)N[C@@H](CCC(=O)O)C(=O)N[C@@H](CCCCN)C(=O)N[C@@H](CC(C)C)C(=O)N[C@@]1(C)CCCC=CCCC[C@@](C)(C(=O)N[C@@H](CCC(=O)O)C(=O)N[C@@H](CC(N)=O)C(=O)N[C@@H](CC(=O)O)C(=O)N[C@@H](CCCCN)C(=O)N[C@@H](CO)C(N)=O)NC(=O)[C@H](CCCCN)NC(=O)[C@H](CCC(=O)O)NC(=O)[C@H](CCCCN)NC1=O [N3S] (Ac-DEKEKL[S5]KEK[S5]ENDKS-NH2; staple 7-11)

degradation of unstapled peptide at shortest timepoint (proteinase K; 30 minutes): completely degraded
Molecule: Ac-DEKEKLLKEKGENDKS-NH2 [N3]

cellular permeability (A549 cells): poor
Molecule: Ac-IVELEQDLDHLKDEKE-NH2 [N1]

Kd (His-MafG): 337 nM
Molecule: IVELE[S5]DLD[S5]LKDEKE (staple 6-10; also: biotin-labeled) [N1S (biotin-labeled)]
